Assay results as given in patent US20230066011A1, “PYRROLOPYRIMIDINE DERIVATIVE, AND PHARMACEUTICAL COMPOSITION FOR PREVENTING OR TREATING PROTEIN KINASE-RELATED DISEASE COMPRISING SAME AS ACTIVE INGREDIENT” (VORONOI CO., LTD., priority 2019, published 2023).

How the values were obtained:
Format in all cases: biochemical
LRRK2 = LRRK2 (Homo sapiens, UniProt Q5S007); assay: LRRK2 enzyme inhibition, ADP-Glo kinase assay; design: purchased Invitrogen PR8604B; settings: ATP 10 μM
Summary of the method: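 Purified human LRRK2 (25 ng) with 10 μM ATP and 0.2 μg substrate in 40 mM Tris-HCl pH 7.4, 20 mM MgCl2, 0.5 mg/mL BSA, 50 μM DTT, 2 h at 25° C. ADP-Glo luminescence; 12-point compound series from 50 μM final; IC50 relative to solvent control.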

human GST-DYRK1A = target: T1, human GST-DYRK1A (Homo sapiens, UniProt Q13627); assay: GST-DYRK1A enzyme inhibition, ADP-Glo kinase assay; settings: ATP 10 μM, GST-DYRK1A full length, read-out: DYRK1 IC50
T1 construct: purified human GST-DYRK1A (full length, Thermo Scientifics) enzyme; purchased Thermo Scientifics
Summary of the method: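 Full-length human GST-DYRK1A (10 ng) with 10 μM ATP and specific substrate in 40 mM Tris-HCl pH 7.4, 20 mM MgCl2, 0.5 mg/mL BSA, 50 μM DTT, 1 h at 25 °C. ADP formation read by ADP-Glo luminescence relative to solvent control; IC50 from three data sets.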

human GST-CLK1 = target: T2, human GST-CLK1 (Homo sapiens, UniProt P49759); assay: GST-CLK1 enzyme inhibition, ADP-Glo kinase assay; settings: ATP 10 μM, GST-CLK1 129-end
T2 construct: purified human GST-CLK1 (129-end, SignalChem) enzyme; purchased SignalChem
T2 sequence (P49759 129-484 limits assumed): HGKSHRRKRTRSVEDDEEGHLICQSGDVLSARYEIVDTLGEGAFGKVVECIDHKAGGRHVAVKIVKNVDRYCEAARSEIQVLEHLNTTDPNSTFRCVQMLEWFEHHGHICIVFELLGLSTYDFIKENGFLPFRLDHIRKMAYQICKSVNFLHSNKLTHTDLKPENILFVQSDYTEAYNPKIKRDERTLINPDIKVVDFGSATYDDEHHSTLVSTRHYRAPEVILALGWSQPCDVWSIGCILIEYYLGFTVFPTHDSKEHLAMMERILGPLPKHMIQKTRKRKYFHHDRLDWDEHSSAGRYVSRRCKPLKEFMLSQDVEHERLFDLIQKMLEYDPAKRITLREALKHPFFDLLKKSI
Summary of the method: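 Human GST-CLK1 (129-end, 3 ng) reacted with substrate and 10 μM ATP for 1 h at 25° C in 40 mM Tris-HCl pH 7.4, 20 mM MgCl2, 0.5 mg/mL BSA, 50 μM DTT. ADP-Glo luminescence was normalised to solvent control; IC50 (nM) from 3 data sets.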

LRRK2 (G2019S) = LRRK2 (G2019S) (Homo sapiens, UniProt Q5S007, G2019S); assay: LRRK2 G2019S enzyme inhibition, ADP-Glo kinase assay; design: purchased SignalChem L10-12GG; settings: ATP 25 μM
LRRK2 (G2019S), sequence (Q5S007 970-2527 G2019S limits assumed): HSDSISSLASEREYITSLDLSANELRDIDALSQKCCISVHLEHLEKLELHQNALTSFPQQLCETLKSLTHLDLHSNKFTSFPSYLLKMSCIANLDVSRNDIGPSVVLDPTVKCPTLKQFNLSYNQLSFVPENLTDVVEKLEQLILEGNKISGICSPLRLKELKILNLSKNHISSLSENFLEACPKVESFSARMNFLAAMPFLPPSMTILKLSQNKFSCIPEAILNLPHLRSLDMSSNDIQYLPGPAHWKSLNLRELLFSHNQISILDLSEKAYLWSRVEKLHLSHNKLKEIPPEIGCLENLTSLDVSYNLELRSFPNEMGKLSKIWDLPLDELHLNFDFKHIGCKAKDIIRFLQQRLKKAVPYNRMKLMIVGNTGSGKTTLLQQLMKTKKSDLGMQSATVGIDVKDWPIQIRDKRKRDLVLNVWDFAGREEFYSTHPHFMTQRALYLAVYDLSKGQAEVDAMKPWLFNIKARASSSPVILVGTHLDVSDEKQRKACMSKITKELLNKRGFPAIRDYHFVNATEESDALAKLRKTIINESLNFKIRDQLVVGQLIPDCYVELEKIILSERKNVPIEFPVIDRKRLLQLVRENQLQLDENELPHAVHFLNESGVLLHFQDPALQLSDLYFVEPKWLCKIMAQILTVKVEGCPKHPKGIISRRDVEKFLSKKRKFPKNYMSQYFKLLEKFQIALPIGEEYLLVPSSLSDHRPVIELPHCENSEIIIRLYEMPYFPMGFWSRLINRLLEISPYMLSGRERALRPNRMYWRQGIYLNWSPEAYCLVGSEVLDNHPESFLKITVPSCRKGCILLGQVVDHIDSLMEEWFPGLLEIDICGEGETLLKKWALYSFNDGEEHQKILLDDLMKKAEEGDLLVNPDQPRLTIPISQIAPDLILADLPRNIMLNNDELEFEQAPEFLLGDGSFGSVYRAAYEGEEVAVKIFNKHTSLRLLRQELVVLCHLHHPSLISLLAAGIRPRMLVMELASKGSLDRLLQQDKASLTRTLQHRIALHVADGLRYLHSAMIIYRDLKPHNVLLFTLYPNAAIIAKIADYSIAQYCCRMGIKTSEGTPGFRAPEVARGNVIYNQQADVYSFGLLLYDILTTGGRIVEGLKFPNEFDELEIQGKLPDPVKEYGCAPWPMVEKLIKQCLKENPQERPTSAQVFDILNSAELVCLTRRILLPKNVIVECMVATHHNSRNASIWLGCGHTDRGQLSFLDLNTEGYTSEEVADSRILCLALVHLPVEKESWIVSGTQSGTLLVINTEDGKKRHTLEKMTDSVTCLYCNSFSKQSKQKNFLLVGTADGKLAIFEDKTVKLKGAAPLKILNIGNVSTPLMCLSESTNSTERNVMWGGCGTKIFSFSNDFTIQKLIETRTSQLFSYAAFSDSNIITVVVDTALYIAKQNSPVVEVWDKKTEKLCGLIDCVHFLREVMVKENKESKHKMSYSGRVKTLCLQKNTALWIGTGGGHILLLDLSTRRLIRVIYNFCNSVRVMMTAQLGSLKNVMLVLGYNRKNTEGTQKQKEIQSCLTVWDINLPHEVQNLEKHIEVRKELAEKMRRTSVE
Summary of the method: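 Purified human LRRK2 G2019S (16 ng) with 25 μM ATP and 0.2 μg substrate, 2 h at 25° C. in Tris-HCl pH 7.4, MgCl2, BSA, DTT buffer; compounds at 12 final concentrations, 50 μM down to 0.000001024 μM. ADP-Glo luminescence versus solvent control gave IC50.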

LRRK2, sequence (Q5S007 970-2527 limits assumed): as the sequence (Q5S007 970-2527 G2019S limits assumed) above, with S1050G counted along it

| IC50 (LRRK2) | IC50 (human GST-DYRK1A) | IC50 (human GST-CLK1) | IC50 (LRRK2 (G2019S)) | Compound |
| --- | --- | --- | --- | --- |
| < 100 nM | 301 to 1000 nM | 301 to 1000 nM | < 100 nM | CCCNc1nc(Nc2ccc(C(=O)N3CCOCC3)c3c2OCCO3)nc2[nH]cc(C(F)(F)F)c12 [Example 162, morpholino(8-((4-(propylamino)-5-(trifluoromethyl)-7H-pyrrolo[2,3-d]pyrimidin-2-yl)amino)-2,3-dihydrobenzo[b][1,4]dioxin-5-yl)methanone] |
| < 100 nM | 101 to 300 nM | 301 to 1000 nM | < 100 nM | CNc1nc(Nc2ccc(S(C)(=O)=O)cc2OC)nc2[nH]cc(C(F)(F)F)c12 [Example 163, N^2-(2-methoxy-4-(methylsulfonyl)phenyl)-N^4-methyl-5-(trifluoromethyl)-7H-pyrrolo[2,3-d]pyrimidine-2,4-diamine] |
| < 100 nM | 301 to 1000 nM | 301 to 1000 nM | 101 to 300 nM | COc1cc(S(C)(=O)=O)ccc1Nc1nc(NC(C)C)c2c(C(F)(F)F)c[nH]c2n1 [Example 166, N^4-isopropyl-N^2-(2-methoxy-4-(methylsulfonyl)-phenyl)-5-(trifluoromethyl)-7H-pyrrolo[2,3-d]pyrimidine-2,4-diamine] |
| < 100 nM | 301 to 1000 nM | 301 to 1000 nM | < 100 nM | CC(C)Nc1nc(Nc2ccc(C(=O)N3CCOCC3)c3c2OCCO3)nc2[nH]cc(C(F)(F)F)c12 [Example 167, (8-((4-(isopropylamino)-5-(trifluoromethyl)-7H-pyrrolo[2,3-d]pyrimidin-2-yl)amino)-2,3-dihydrobenzo[b][1,4]dioxin-5-yl)(morpholino)methanone] |
| < 100 nM | < 100 nM | < 100 nM | < 100 nM | COCCNc1nc(Nc2ccc(C(=O)N3CCOCC3)c3c2OCCO3)nc2[nH]cc(C(F)(F)F)c12 [Example 168, (8-((4-((2-methoxyethyl)amino)-5-(trifluoromethyl)-7H-pyrrolo[2,3-d]pyrimidin-2-yl)amino)-2,3-dihydrobenzo[b][1,4]dioxin-5-yl)(morpholino)methanone] |
| < 100 nM | 301 to 1000 nM | 301 to 1000 nM | < 100 nM | COCCNc1nc(Nc2ccc(S(C)(=O)=O)cc2OC)nc2[nH]cc(C(F)(F)F)c12 [Example 171, N^2-(2-methoxy-4-(methylsulfonyl)phenyl)-N^4-(2-methoxyethyl)-5-(trifluoromethyl)-7H-pyrrolo[2,3-d]pyrimidine-2,4-diamine] |
| < 100 nM | 301 to 1000 nM | 301 to 1000 nM | < 100 nM | CC[C@@H](C)Nc1nc(Nc2ccc(C(=O)N3CCOCC3)c3c2OCCO3)nc2[nH]cc(C(F)(F)F)c12 [Example 174, (R)-(8-((4-(sec-butylamino)-5-(trifluoromethyl)-7H-pyrrolo[2,3-d]pyrimidin-2-yl)amino)-2,3-dihydrobenzo[b][1,4]dioxin-5-y)(morpholino)methanone] |
| 301 to 1000 nM | 301 to 1000 nM | 301 to 1000 nM | 301 to 1000 nM | COCC(C)(C)Nc1nc(Nc2ccc(S(C)(=O)=O)cc2OC)nc2[nH]cc(C(F)(F)F)c12 [Example 177, N^4-(1-methoxy-2-methylpropan-2-yl)-N^2-(2-methoxy-4-(methylsulfonyl)phenyl)-5-(trifluoromethyl)-7H-pyrrolo[2,3-d]pyrimidine-2,4-diamine] |
| < 100 nM | 301 to 1000 nM | 301 to 1000 nM | < 100 nM | COCC(C)(C)Nc1nc(Nc2ccc(C(=O)N3CCOCC3)c3c2OCCO3)nc2[nH]cc(C(F)(F)F)c12 [Example 178, (8-((4-((1-methoxy-2-methylpropan-2-yl)amino)-5-(trifluoromethyl)-7H-pyrrolo[2,3-d]pyrimidin-2-yl)amino)-2,3-dihydrobenzo[b][1,4]dioxin-5-yl)(morpholino)methanone] |
| < 100 nM | 301 to 1000 nM | 301 to 1000 nM | 101 to 300 nM | COc1cc(S(=O)(=O)N2CCC(N3CCOCC3)CC2)ccc1Nc1nc(NCC(C)C)c2c(C(F)(F)F)c[nH]c2n1 [Example 179, N^4-isobutyl-N^2-(2-methoxy-4-((4-morpholinopiperidin-1-yl)sulfonyl)phenyl)-5-(trifluoromethyl)-7H-pyrrolo[2,3-d]pyrimidine-2,4-diamine] |
| 101 to 300 nM | 301 to 1000 nM | 301 to 1000 nM | 101 to 300 nM | CCCNc1nc(Nc2ccc(S(C)(=O)=O)cc2OC)nc2[nH]cc(C(F)(F)F)c12 [Example 181, N^2-(2-methoxy-4-(methylsulfonyl)phenyl)-N^4-propyl-5-(trifluoromethyl)-7H-pyrrolo[2,3-d]pyrimidine-2,4-diamine] |
| < 100 nM | 301 to 1000 nM | 301 to 1000 nM | < 100 nM | O=C(c1ccc(Nc2nc(NC3CC3)c3c(C(F)(F)F)c[nH]c3n2)c2c1OCCO2)N1CCOCC1 [Example 182, (8-((4-(cyclopropylamino)-5-(trifluoromethyl)-7H-pyrrolo[2,3-d]pyrimidin-2-yl)amino)-2,3-dihydrobenzo[b][1,4]dioxin-5-yl)(morpholino)methanone] |
| < 100 nM | 301 to 1000 nM | 101 to 300 nM | 101 to 300 nM | COc1cc(S(C)(=O)=O)ccc1Nc1nc(NC2CCC2)c2c(C(F)(F)F)c[nH]c2n1 [Example 184, N^4-cyclobutyl-N^2-(2-methoxy-4-(methylsulfonyl)phenyl)-5-(trifluoromethyl)-7H-pyrrolo[2,3-d]pyrimidine-2,4-diamine] |
| < 100 nM | 301 to 1000 nM | 101 to 300 nM | 101 to 300 nM | O=C(c1ccc(Nc2nc(NC3CCC3)c3c(C(F)(F)F)c[nH]c3n2)c2c1OCCO2)N1CCOCC1 [Example 185, (8-((4-(cyclobutylamino)-5-(trifluoromethyl)-7H-pyrrolo[2,3-d]pyrimidin-2-yl)amino)-2,3-dihydrobenzo[b][1,4]dioxin-5-yl)(morpholino)methanone] |
| 301 to 1000 nM | 301 to 1000 nM | 301 to 1000 nM | 301 to 1000 nM | COCCNc1nc(Nc2ccc(C(=O)N3CCOCC3)c3c2OCCO3)nc2[nH]cc(C(N)=O)c12 [Example 235, 4-((2-methoxyethyl)amino)-2-((8-(morpholine-4-carbonyl)-2,3-dihydrobenzo[b][1,4]dioxin-5-yl)amino)-7H-pyrrolo[2,3-d]pyrimidine-5-carboxamide] |
| < 100 nM | 301 to 1000 nM | 301 to 1000 nM | < 100 nM | C=CCNc1nc(Nc2ccc(S(=O)(=O)N3CCOCC3)cc2OC)nc2[nH]ccc12 [Example 246, N4-allyl-N2-(2-methoxy-4-(morpholinosulfonyl)phenyl)-7H-pyrrolo[2,3-d]pyrimidine-2,4-diamine] |
| < 100 nM | 301 to 1000 nM | 301 to 1000 nM | < 100 nM | C=CCNc1nc(Nc2ccc(S(=O)(=O)N3CCC(N4CCOCC4)CC3)cc2OC)nc2[nH]ccc12 [Example 247, N4-allyl-N2-(2-methoxy-4-((4-morpholinopiperidin-1-yl)sulfonyl)phenyl)-7H-pyrrolo[2,3-d]pyrimidine-2,4-diamine] |
| < 100 nM | 301 to 1000 nM | 301 to 1000 nM | < 100 nM | N#Cc1c[nH]c2nc(Nc3ccc(C(=O)N4CCC(N5CCOCC5)CC4)c4c3OCCO4)nc(NC3CCCCC3)c12 [Example 251, 4-(cyclohexylamino)-2-((8-(4-morpholinopiperidine-1-carbonyl)-2,3-dihydrobenzo[b][1,4]dioxin-5-yl)amino)-7H-pyrrolo[2,3-d]pyrimidine-5-carbonitrile] |
| < 100 nM | 301 to 1000 nM | 301 to 1000 nM | < 100 nM | CNc1nc(Nc2ccc(S(C)(=O)=O)cc2OC)nc2[nH]cc(C#N)c12 [Example 257, 2-((2-methoxy-4-(methylsulfonyl)phenyl)amino)-4-(methylamino)-7H-pyrrolo[2,3-d]pyrimidine-5-carbonitrile] |
| < 100 nM | 101 to 300 nM | < 100 nM | < 100 nM | N#Cc1c[nH]c2nc(Nc3ccc(C(=O)N4CCC(N5CCOCC5)CC4)c4c3OCCO4)nc(NC3CCC3)c12 [Example 259, 4-(cyclobutylamino)-2-((8-(4-morpholinopiperidine-1-carbonyl)-2,3-dihydrobenzo[b][1,4]dioxin-5-yl)amino)-7H-pyrrolo[2,3-d]pyrimidine-5-carbonitrile] |
| < 100 nM | 101 to 300 nM | < 100 nM | < 100 nM | CCNc1nc(Nc2ccc(C(=O)N3CCC(N4CCOCC4)CC3)c3c2OCCO3)nc2[nH]cc(C(F)(F)F)c12 [Example 363, (8-((4-(ethylamino)-5-(trifluoromethyl)-7H-pyrrolo[2,3-d]pyrimidin-2-yl)amino)-2,3-dihydro-benzo[b][1,4]dioxin-5-yl)(4-morpholino-piperidin-1-yl)methanone] |
